Publication PMC11633360 (ChemistryOpen, 2024)
≈ marks a conversion by molar mass, not a printed value. Where “and” joins values, the source holds several entries; their conditions need not be identical. Equal entries are not always repeated.

How the values were obtained:
[1] = DPPH radical scavenging activity; settings: DPPH 300 μM in methanol, 30 minutes, 25 °C
Procedure: The capacity of the chemical compounds to decolourize the purple colour of DPPH solution was investigated following a modified procedure of Turkoglu et al..[48] […] The solution was mixed gently before equilibration in a dark compartment for 30 minutes at 25 °C. […] The DPPH radical scavenging ability of each compound was estimated using the expression below: %DPPHscavenging=1-TestsampleAbs/BlankAbs×100

[2] = Nitric oxide (NO) scavenging activity; settings: sodium nitroprusside, pH 7.4, 2 hr, 37 °C, Griess reagent
Procedure: The NO radical mop‐up ability of the compounds was evaluated using Kurian et al.[49] previous protocol. […] After 2 hr equilibration at 37 °C, 0.250 mL of Griess reagent was added, and the absorbance of the coloured solution produced was measured at 545 nm against a blank solution lacking the test samples. Subsequently, the % NO scavenging antioxidant capacity of the compounds was expressed as: %Nitricoxidescavenging=1-TestsampleAbs/BlankAbs×100

Mtb H37Rv = assay: microbe, parasite or virus in culture; format: cell-based, Mycobacterium tuberculosis; settings: for MIC90: Mycobacterium tuberculosis, H37RV, read-out: GFP Assay – 10pt DR: MIC90

Compound	IC50 [1] [mM]	IC50 [2] [mM]	GFP Assay – 10pt DR: MIC90 (Mtb H37Rv)	MIC90 (Mtb H37Rv) [µM]	melting point [°C]
CC1CCN(c2nn(-c3ccnc4cc(Cl)ccc34)c3ncnc(N)c23)CC1 [Compound 10c, 1‐(7‐chloroquinolin‐4‐yl)‐3‐(4‐methylpiperidin‐1‐yl)‐1H‐pyrazolo[3,4–d]pyrimidin‐4‐amine]	2.1	2.78	>125 µM and 125 µM	62.5 (≈ 24.6 µg/mL)	–
Nc1ncnc2c1cnn2-c1ccnc2cc(Cl)ccc12 [Compound 10a, 1‐(7‐Chloroquinolin‐4‐yl)‐1H‐Pyrazolo[3,4–d]pyrimidin‐4‐Amine]	> 4	2.59	–	> 125	–
Clc1ccc2c(Nc3ccccc3)ccnc2c1 [Compound 12a, 7‐Chloro‐N‐Phenylquinolin‐4‐Amine]	> 4	0.5	62.5 µM and >125 µM	125 (≈ 31.8 µg/mL)	> 250
Cc1ccc(Nc2ccnc3cc(Cl)ccc23)cc1 [Compound 12e, 7‐Chloro‐N‐(p–tolyl)quinolin‐4‐Amine]	> 4	> 4	–	–	> 250
Fc1ccc(Nc2ccnc3cc(Cl)ccc23)cc1 [Compound 12b, 7‐Chloro‐N‐(4‐Fluorophenyl)quinolin‐4‐Amine]	> 4	1.92	–	–	–
Nc1ncnc2c1c(N1CCOCC1)nn2-c1ccnc2cc(Cl)ccc12 [Compound 10d, 1‐(7‐Chloroquinolin‐4‐yl)‐3‐Morpholino‐1H‐Pyrazolo[3,4–d]pyrimidin‐4‐Amine]	> 4	2.46	–	> 125	–
Nc1ncnc2[nH]nc(N3CCOCC3)c12 [Compound 8c, 3‐Morpholino‐1H‐Pyrazolo[3,4–d]pyrimidin‐4‐Amine]	> 4	0.88	–	–	–
CCN1CCN(c2nn(-c3ccnc4cc(Cl)ccc34)c3ncnc(N)c23)CC1 [Compound 10f, 1‐(7‐Chloroquinolin‐4‐yl)‐3‐(4‐Ethylpiperazin‐1‐yl)‐1H‐Pyrazolo[3,4–d]pyrimidin‐4‐Amine]	> 4	0.8	>125 µM and 125 µM	62.5 (≈ 25.6 µg/mL)	–
Nc1ncnc2[nH]ncc12 [Compound 4, 1H‐Pyrazolo[3,4–d]pyrimidin‐4‐Amine]	> 4	0.78	–	–	–
CCN1CCN(c2n[nH]c3ncnc(N)c23)CC1 [Compound 8e, 3‐(4‐Ethylpiperazin‐1‐yl)‐1H‐Pyrazolo[3,4–d]pyrimidin‐4‐Amine]	0.93	0.98	62.5 µM	> 125	–
O=[N+]([O-])c1ccc(Nc2ccnc3cc(Cl)ccc23)cc1 [12 h, 7‐Chloro‐N‐(4‐Nitrophenyl)quinolin‐4‐Amine]	0.08	0.65	62.5 µM	> 125	–
FC(F)(F)Oc1ccc(Nc2ccnc3cc(Cl)ccc23)cc1 [12 g, 7‐Chloro‐N‐(4‐(trifluoromethoxy)phenyl)quinolin‐4‐Amine]	> 4	> 4	–	–	> 250
Clc1ccc2c(Cl)ccnc2c1 [Compound 9, 4,7‐dichloroquinoline]	> 4	0.82	–	> 125	–
Nc1ncnc2c1c(N1CCCCC1)nn2-c1ccnc2cc(Cl)ccc12 [Compound 10b, 1‐(7‐Chloroquinolin‐4‐yl)‐3‐(piperidin‐1‐yl)‐1H‐Pyrazolo[3,4–d]pyrimidin‐4‐Amine]	> 4	> 4	–	> 125	–
CN1CCN(c2nn(-c3ccnc4cc(Cl)ccc34)c3ncnc(N)c23)CC1 [Compound 10e, 1‐(7‐Chloroquinolin‐4‐yl)‐3‐(4‐Methylpiperazin‐1‐yl)‐1H‐Pyrazolo[3,4–d]pyrimidin‐4‐Amine]	> 4	> 4	–	–	–
CC1CCN(c2n[nH]c3ncnc(N)c23)CC1 [Compound 8b, 3‐(4‐methylpiperidin‐1‐yl)‐1H‐pyrazolo[3,4–d]pyrimidin‐4‐amine]	> 4	1.01	–	–	–
Nc1ncnc2c1c(N1CCN(CCO)CC1)nn2-c1ccnc2cc(Cl)ccc12 [10 g, 2‐(4‐(4‐Amino‐1‐(7‐Chloroquinolin‐4‐yl)‐1H‐Pyrazolo[3,4–d]pyrimidin‐3‐yl)piperazin‐1‐yl)ethanol]	2.96	0.28	>125 µM	62.5 (≈ 26.6 µg/mL)	–
CN1CCN(c2n[nH]c3ncnc(N)c23)CC1 [Compound 8d, 3‐(4‐Methylpiperazin‐1‐yl)‐1H‐Pyrazolo[3,4–d]pyrimidin‐4‐Amine]	0.58	0.8	62.5 µM	> 125	–
Nc1ncnc2[nH]nc(N3CCCCC3)c12 [Compound 8a, 3‐(piperidin‐1‐yl)‐1H‐Pyrazolo[3,4–d]pyrimidin‐4‐Amine]	3.4	0.8	125 µM	> 125	–
Clc1ccc(Nc2ccnc3cc(Cl)ccc23)cc1 [Compound 12c, 7‐Chloro‐N‐(4‐Chlorophenyl)quinolin‐4‐Amine]	> 4	> 4	–	> 125	> 250
O=C1O[C@H]([C@@H](O)CO)C(O)=C1O [Ascorbic acid, reference compound]	0.05	> 4	–	–	–
Nc1ncnc2[nH]nc(N3CCN(CCO)CC3)c12 [Compound 8f]	3.54	0.6	–	> 125	–
COc1ccc(Nc2ccnc3cc(Cl)ccc23)cc1 [Compound 12f, 7‐Chloro‐N‐(4‐Methoxyphenyl)quinolin‐4‐Amine]	> 4	0.88	>125 µM	62.5 (≈ 17.8 µg/mL)	–
Clc1ccc2c(Nc3ccc(Br)cc3)ccnc2c1 [Compound 12d, N‐(4‐Bromophenyl)‐7‐Chloroquinolin‐4‐Amine]	> 4	> 4	–	> 125	> 250
